From ChEMBL document CHEMBL1143034, “The screening and characterization of 6-aminopurine-based xanthine oxidase inhibitors” (Bioorg Med Chem, 2007)

Target: T1, Xanthine dehydrogenase/oxidase (Homo sapiens, UniProt P47989)
Assay: Inhibition of human xanthine oxidase

T1 sequence (P47989 whole entry): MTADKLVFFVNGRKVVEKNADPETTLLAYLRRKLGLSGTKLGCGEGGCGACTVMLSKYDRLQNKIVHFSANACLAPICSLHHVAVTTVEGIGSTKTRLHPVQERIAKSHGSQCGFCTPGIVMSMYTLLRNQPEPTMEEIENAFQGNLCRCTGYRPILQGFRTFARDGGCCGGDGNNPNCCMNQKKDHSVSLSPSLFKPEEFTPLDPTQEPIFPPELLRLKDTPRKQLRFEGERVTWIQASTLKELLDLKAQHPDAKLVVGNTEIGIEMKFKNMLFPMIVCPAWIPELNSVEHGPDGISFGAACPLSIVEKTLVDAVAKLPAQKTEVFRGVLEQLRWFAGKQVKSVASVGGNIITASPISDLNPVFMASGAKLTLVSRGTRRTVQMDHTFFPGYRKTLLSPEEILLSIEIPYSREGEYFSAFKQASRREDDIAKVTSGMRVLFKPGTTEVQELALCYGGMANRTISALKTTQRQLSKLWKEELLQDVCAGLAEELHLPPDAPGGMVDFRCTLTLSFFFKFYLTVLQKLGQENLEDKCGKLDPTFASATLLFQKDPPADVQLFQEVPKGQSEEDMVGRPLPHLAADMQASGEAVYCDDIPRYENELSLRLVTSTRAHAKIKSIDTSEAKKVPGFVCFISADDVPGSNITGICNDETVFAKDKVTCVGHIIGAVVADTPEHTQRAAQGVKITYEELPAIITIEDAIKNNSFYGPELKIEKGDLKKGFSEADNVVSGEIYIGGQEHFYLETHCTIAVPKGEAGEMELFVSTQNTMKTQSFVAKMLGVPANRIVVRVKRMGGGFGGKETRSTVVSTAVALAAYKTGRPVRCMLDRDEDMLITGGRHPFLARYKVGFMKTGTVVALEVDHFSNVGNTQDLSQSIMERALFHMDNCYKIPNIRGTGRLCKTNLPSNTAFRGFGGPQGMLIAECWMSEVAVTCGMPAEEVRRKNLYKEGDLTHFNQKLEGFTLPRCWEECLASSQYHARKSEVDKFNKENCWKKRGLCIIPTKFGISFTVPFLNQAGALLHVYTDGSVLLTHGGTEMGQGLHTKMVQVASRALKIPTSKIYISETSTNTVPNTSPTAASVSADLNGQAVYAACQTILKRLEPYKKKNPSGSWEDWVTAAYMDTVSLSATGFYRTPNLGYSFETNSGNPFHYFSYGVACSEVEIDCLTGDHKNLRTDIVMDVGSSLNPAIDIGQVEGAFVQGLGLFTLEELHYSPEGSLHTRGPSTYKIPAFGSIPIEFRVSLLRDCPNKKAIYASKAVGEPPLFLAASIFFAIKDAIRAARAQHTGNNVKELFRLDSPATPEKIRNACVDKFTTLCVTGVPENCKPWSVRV

SMILES | IC50
O=[N+]([O-])c1ccc2[nH]cnc2c1 | 86.8 µM
Cc1cc2nc[nH]c2cc1C [DIMEDAZOL] | > 200 µM
COc1nc(N)nc2nc[nH]c12 [METHYLGUANINE] | > 200 µM
Cn1c(=O)[nH]c2nc[nH]c2c1=O [1-METHYLXANTHINE] | > 200 µM
Nc1ncnc2[nH]ncc12 | 30.3 µM
Nc1nc(Cl)c2nc[nH]c2n1 [6-CHLOROGUANINE] | > 200 µM
Nc1ncc2[nH]cnc2n1 [2-AMINOPURINE] | > 200 µM
Cc1ccc2[nH]cnc2c1 | > 200 µM
Nc1nc(N)c2[nH]cnc2n1 [2,6-DIAMINOPURINE] | > 200 µM
Nc1nc2nc[nH]c2c(=S)[nH]1 [THIOGUANINE] | 92.4 µM

Target: T1, Xanthine dehydrogenase/oxidase
Assay: Inhibition of human xanthine oxidase at 30 uM

SMILES | inhibition at 30 µM
Nc1ncnc2[nH]ncc12 | 49.8%
Oc1ncnc2[nH]ncc12 [ALLOPURINOL] | 93.8%
Nc1[nH]cnc2ncnc1-2 [ADENINE] | 61.3%
